Test results as given in ChEMBL document CHEMBL5376002, “A Hybrid Antimicrobial Peptide Targeting Staphylococcus aureus with a Dual Function of Inhibiting Quorum Sensing Signaling and an Antibacterial Effect” (J Med Chem, 2023).
Converted amounts (≈) assume the structure as drawn. The source made the active and inactive calls. The rule behind the calls is not given here. Bridge positions count the residues as written; N and C are the ends. Square brackets hold non-standard residues; d marks the D form. Peptide text beside a SMILES is read from it. Dab = NCC[C@H](N)C(=O)O

Experiments:
Streptococcus pneumoniae [1] = test: Bactericidal activity against Streptococcus pneumoniae ATCC 49619 assessed as inhibition of bacterial growth incubated for 18 to 24 hrs; assay type: functional; settings: time 18-24 hrs
Cell membrane [2] = test: Induction of cell membrane damage in Staphylococcus aureus ATCC 6538p assessed as increase in nucleic acid leakage measured up to 30 mins by UV-spectrophotometer analysis; assay type: subcellular
Staphylococcus aureus [3] = test: Antibacterial activity against Staphylococcus aureus ATCC 6538p assessed as inhibition of bacterial growth incubated for 18 to 24 hrs; assay type: functional; settings: time 18-24 hrs
Streptococcus pneumoniae [4] = test: Antibacterial activity against Streptococcus pneumoniae ATCC 49619 assessed as inhibition of bacterial growth incubated for 18 to 24 hrs; assay type: functional; settings: time 18-24 hrs
[5] = test system: Staphylococcus saprophyticus; test: Antibacterial activity against Staphylococcus saprophyticus ATCC BAA-750 assessed as inhibition of bacterial growth incubated for 18 to 24 hrs; assay type: functional; settings: time 18-24 hrs
[6] = test system: Staphylococcus saprophyticus; test: Bactericidal activity against Staphylococcus saprophyticus ATCC BAA-750 assessed as inhibition of bacterial growth incubated for 18 to 24 hrs; assay type: functional; settings: time 18-24 hrs
Staphylococcus aureus [7] = test: Antibacterial activity against Staphylococcus aureus ATCC 12600 assessed as inhibition of bacterial growth incubated for 18 to 24 hrs; assay type: functional; settings: time 18-24 hrs
Staphylococcus aureus [8] = test: Antibacterial activity against Staphylococcus aureus ATCC 43300 assessed as inhibition of bacterial growth incubated for 18 to 24 hrs; assay type: functional; settings: time 18-24 hrs
Staphylococcus aureus [9] = test: Bactericidal activity against Staphylococcus aureus ATCC 6538p assessed as inhibition of bacterial growth incubated for 18 to 24 hrs; assay type: functional; settings: time 18-24 hrs
[10] = Toxicity in Kunming mouse infected with Staphylococcus aureus ATCC 6538p assessed as animal survival rate 5 mg/kg, ip pre-infected with bacteria for 1 hr followed by compound administration and measured after 7 days; assay type: organism-based; settings: in vivo, 168 h, time 7 day
Streptococcus mutans [11] = test: Antibacterial activity against Streptococcus mutans UA159 assessed as inhibition of bacterial growth incubated for 18 to 24 hrs; assay type: functional; settings: time 18-24 hrs
Streptococcus mutans [12] = test: Antibacterial activity against Streptococcus mutans ATCC 25175 assessed as inhibition of bacterial growth incubated for 18 to 24 hrs; assay type: functional; settings: time 18-24 hrs
[13] = test system: Staphylococcus epidermidis; test: Bactericidal activity against Staphylococcus epidermidis ATCC 12228 assessed as inhibition of bacterial growth incubated for 18 to 24 hrs; assay type: functional; settings: time 18-24 hrs
Staphylococcus aureus [14] = test: Bactericidal activity against Staphylococcus aureus ATCC 43300 assessed as inhibition of bacterial growth incubated for 18 to 24 hrs; assay type: functional; settings: time 18-24 hrs
Staphylococcus aureus [15] = test: Bactericidal activity against Staphylococcus aureus ATCC 12600 assessed as inhibition of bacterial growth incubated for 18 to 24 hrs; assay type: functional; settings: time 18-24 hrs
[16] = test system: Staphylococcus epidermidis; test: Antibacterial activity against Staphylococcus epidermidis ATCC 12228 assessed as inhibition of bacterial growth incubated for 18 to 24 hrs; assay type: functional; settings: time 18-24 hrs
Escherichia coli [17] = test: Antibacterial activity against Escherichia coli ATCC 25922 assessed as inhibition of bacterial growth incubated for 18 to 24 hrs; assay type: functional; settings: time 18-24 hrs
Staphylococcus aureus [18] = test: Inhibition of biofilm formation in Staphylococcus aureus at 0.78 to 1.56 uM incubated for 24 hrs by crystal violet staining based analysis; assay type: functional, organism-based; settings: dose 0.78-1.56 µM
Staphylococcus aureus [19] = test: Antivirulence activity against Staphylococcus aureus assessed as downregulation of hla expression level at 1 to 100 uM incubated for 24 hrs by qRT-PCR analysis; assay type: functional, organism-based; settings: dose 1-100 µM
[20] = Binding affinity to AgrC-I extra-loop-II (unknown origin) assessed as change in enthalpy incubated for 10 mins by isothermal titration calorimetry analysis
Staphylococcus aureus [21] = test: Inhibition of biofilm formation in Staphylococcus aureus incubated for 24 hrs by crystal violet staining based microscopic analysis; assay type: functional, organism-based
Staphylococcus aureus [22] = test: Bactericidal activity against Staphylococcus aureus assessed as inhibition of bacterial growth at 31.25 uM incubated for 120 mins; assay type: functional, organism-based
Staphylococcus aureus [23] = test: Antivirulence activity against Staphylococcus aureus assessed as downregulation of RNAIII expression level at 1 to 100 uM incubated for 24 hrs by qRT-PCR analysis; assay type: functional, organism-based; settings: dose 1-100 µM
[24] = Binding affinity to AgrC-I extra-loop-I (unknown origin) assessed as dissociation constant incubated for 10 mins by isothermal titration calorimetry analysis
[25] = Binding affinity to AgrC-I extra-loop-II (unknown origin) assessed as dissociation constant incubated for 10 mins by isothermal titration calorimetry analysis
[26] = Binding affinity to AgrC-I extra-loop-III (unknown origin) assessed as dissociation constant incubated for 10 mins by isothermal titration calorimetry analysis
RAW264.7 [27] = test: Cytotoxicity against mouse RAW264.7 cells assessed as cell viability incubated for 48 hrs by MTT assay; assay type: functional
Staphylococcus aureus [28] = test: Antivirulence activity against Staphylococcus aureus assessed as downregulation of psm-alpha expression level at 1 to 100 uM incubated for 24 hrs by qRT-PCR analysis; assay type: functional, organism-based; settings: dose 1-100 µM
Staphylococcus aureus [29] = test: Antivirulence activity against Staphylococcus aureus ATCC 6538p assessed as downregulation of RNAIII expression level at 2.5 uM measured for 28 passages by qRT-PCR analysis; assay type: functional, organism-based
[30] = Binding affinity to AgrC-I extra-loop-III (unknown origin) assessed as change in enthalpy incubated for 10 mins by isothermal titration calorimetry analysis
Homo sapiens [31] = organism: Homo sapiens; test: Binding affinity to AgrC-I extra-loop-III (unknown origin) assessed as gibbs free energy change incubated for 10 mins by isothermal titration calorimetry analysis
Staphylococcus aureus [32] = test: Inhibition of biofilm formation in Staphylococcus aureus at 0.39 uM incubated for 24 hrs by crystal violet staining based analysis; assay type: functional, organism-based
[33] = Binding affinity to AgrC-I extra-loop-I (unknown origin) assessed as change in enthalpy incubated for 10 mins by isothermal titration calorimetry analysis
[34] = Inhibition of quorum sensing system in Staphylococcus saprophyticus ATCC BAA-750 assessed as downregulation of RNAIII expression level at 1 to 100 uM incubated for 24 hrs by qRT-PCR analysis; settings: dose 1-100 µM
[35] = Inhibition of quorum sensing system in Staphylococcus aureus ATCC 6538p assessed as downregulation of RNAIII expression level incubated for 24 hrs by qRT-PCR analysis; settings: dose 1-100 µM
[36] = Inhibition of quorum sensing system in Staphylococcus epidermidis ATCC 12228 assessed as downregulation of RNAIII expression level at 1 to 100 uM incubated for 24 hrs by qRT-PCR analysis; settings: dose 1-100 µM
Homo sapiens [37] = organism: Homo sapiens; test: Binding affinity to AgrC-I extra-loop-I (unknown origin) assessed as gibbs free energy change incubated for 10 mins by isothermal titration calorimetry analysis
Homo sapiens [38] = organism: Homo sapiens; test: Binding affinity to AgrC-I extra-loop-II (unknown origin) assessed as gibbs free energy change incubated for 10 mins by isothermal titration calorimetry analysis
RAW264.7 [39] = test: Cytotoxicity against mouse RAW264.7 cells assessed as cell viability upto 125 uM incubated for 48 hrs by MTT assay; assay type: functional, cell-based
Erythrocyte = test: Hemolytic activity in rat RBC assessed as hemolysis measured after 20 hrs; assay type: toxicity, cell-based
Homo sapiens [40] = organism: Homo sapiens; test: Binding affinity to AgrC-I extra-loop-III (unknown origin) assessed as change in entropy incubated for 10 mins by isothermal titration calorimetry analysis
Homo sapiens [41] = organism: Homo sapiens; test: Binding affinity to AgrC-I extra-loop-I (unknown origin) assessed as change in entropy incubated for 10 mins by isothermal titration calorimetry analysis
Cell membrane [42] = test: Induction of cell membrane damage in Staphylococcus aureus ATCC 6538p assessed as increase in fluorescent intensity incubated for 30 mins by PI staining based flow cytometry assay
Escherichia coli [43] = test: Bactericidal activity against Escherichia coli ATCC 25922 assessed as inhibition of bacterial growth incubated for 18 to 24 hrs; assay type: functional; settings: time 18-24 hrs
Streptococcus mutans [44] = test: Bactericidal activity against Streptococcus mutans ATCC 25175 assessed as inhibition of bacterial growth incubated for 18 to 24 hrs; assay type: functional; settings: time 18-24 hrs
Homo sapiens [45] = organism: Homo sapiens; test: Binding affinity to AgrC-I extra-loop-II (unknown origin) assessed as change in entropy incubated for 10 mins by isothermal titration calorimetry analysis
Streptococcus mutans [46] = test: Bactericidal activity against Streptococcus mutans UA159 assessed as inhibition of bacterial growth incubated for 18 to 24 hrs; assay type: functional; settings: time 18-24 hrs

| Compound | MBC (Streptococcus pneumoniae [1]) [µM] | Activity (Cell membrane [2]) | MIC (Staphylococcus aureus [3]) [µM] | MIC (Streptococcus pneumoniae [4]) [µM] | MIC [5] [µM] | MBC [6] [µM] | MIC (Staphylococcus aureus [7]) [µM] | MIC (Staphylococcus aureus [8]) [µM] | MBC (Staphylococcus aureus [9]) [µM] | MIC (Streptococcus mutans [11]) [µM] | MIC (Streptococcus mutans [12]) [µM] | MBC [13] [µM] | MBC (Staphylococcus aureus [14]) [µM] | MBC (Staphylococcus aureus [15]) [µM] | MIC [16] [µM] | MIC (Escherichia coli [17]) [µM] | Activity (Staphylococcus aureus [19]) | deltaH [20] [kcal/mol] | inhibition (Staphylococcus aureus [21]) | Activity (Staphylococcus aureus [23]) | also measured |
| --- | --- | --- | --- | --- | --- | --- | --- | --- | --- | --- | --- | --- | --- | --- | --- | --- | --- | --- | --- | --- | --- |
| CN[C@H](CC(C)C)C(=O)N[C@H]1C(=O)N[C@@H](CC(N)=O)C(=O)N[C@H]2C(=O)N[C@H]3C(=O)N[C@H](C(=O)N[C@H](C(=O)O)c4cc(O)cc(O)c4-c4cc3ccc4O)[C@H](O)c3ccc(c(Cl)c3)Oc3cc2cc(c3O[C@@H]2O[C@H](CO)[C@@H](O)[C@H](O)[C@H]2O[C@H]2C[C@](C)(N)[C@H](O)[C@H](C)O2)Oc2ccc(cc2Cl)[C@H]1O [VANCOMYCIN] | 0.19 (≈ 0.275 µg/mL) | inactive | 0.39 (≈ 0.565 µg/mL) | 0.19 (≈ 0.275 µg/mL) | 0.39 (≈ 0.565 µg/mL) | 0.39 (≈ 0.565 µg/mL) | 0.39 (≈ 0.565 µg/mL) | 0.39 (≈ 0.565 µg/mL) | 0.39 (≈ 0.565 µg/mL) | > 100 | > 100 | 0.39 (≈ 0.565 µg/mL) | 0.39 (≈ 0.565 µg/mL) | 0.39 (≈ 0.565 µg/mL) | 0.39 (≈ 0.565 µg/mL) | > 100 |  |  |  |  | Activity [10]: 90% |
| CC[C@H](C)[C@H](NC(C)=O)C(=O)N[C@@H](CC(N)=O)C(=O)N[C@H]1CCNC(=O)[C@H](CC(C)C)NC(=O)[C@H](CC(C)C)NC(=O)[C@H](Cc2ccccc2)NC(=O)[C@H](C)NC1=O (Ac-IN[Dab]AFLL; lactam 3-C) |  |  | > 100 | > 100 | > 100 |  | > 100 | > 100 |  | > 100 | > 100 |  |  |  | > 100 | > 100 | Active | -52.4 | Active | Active | inhibition (Staphylococcus aureus [18]): Active; Activity (Staphylococcus aureus [22]): inactive; Kd [24]: 1 pM; Kd [25]: 2.32 mM; Kd [26]: 137 nM; CC50 (RAW264.7 [27]): > 125 µM; Activity (Staphylococcus aureus [28]): Active; Activity (Staphylococcus aureus [29]): Active; deltaH [30]: 0.085 kcal/mol; deltaG (Homo sapiens [31]): -9.36 kcal/mol; inhibition (Staphylococcus aureus [32]): Active; deltaH [33]: -1.43 kcal/mol; inhibition [34]: inactive; inhibition [35]: Dose-Dependent Effect; inhibition [36]: inactive; deltaG (Homo sapiens [37]): -16.4 kcal/mol; deltaG (Homo sapiens [38]): -3.6 kcal/mol; Activity (RAW264.7 [39]): inactive; Activity (Erythrocyte): Toxic |
| H-IKNLWKKMIKLWY-OH | 12.5 | Active | 3.13 | 6.25 | 3.13 | 6.25 | 3.13 | 6.25 | 3.13 | 6.25 | 3.13 | 3.13 | 6.25 | 6.25 | 1.56 | 3.13 | inactive | -44.2 | Active | inactive | -TdeltaS (Homo sapiens [40]): -15.6 kcal/mol; -TdeltaS (Homo sapiens [41]): -16.3 kcal/mol; Activity (Cell membrane [42]): Active; MBC (Escherichia coli [43]): 3.13 µM; Kd [24]: 1 pM; Kd [25]: 1e-09 mM; Kd [26]: 0.001 nM; CC50 (RAW264.7 [27]): > 125 µM; Activity (Staphylococcus aureus [28]): inactive; deltaH [30]: -0.775 kcal/mol; deltaG (Homo sapiens [31]): -16.4 kcal/mol; deltaH [33]: inactive; deltaG (Homo sapiens [37]): -16.4 kcal/mol; deltaG (Homo sapiens [38]): -16.4 kcal/mol; Activity (RAW264.7 [39]): inactive; MBC (Streptococcus mutans [44]): 12.5 µM; -TdeltaS (Homo sapiens [45]): 27.9 kcal/mol; MBC (Streptococcus mutans [46]): 12.5 µM; Activity (Erythrocyte): Non-Toxic |
